These compounds were tested against rat MCH-1 (Rattus norvegicus, UniProt P97639) (assay: Radioligand binding assay at cloned rat MCH1 receptor ([3H] Compound A)). Settings: cloned rat MCH1 receptor; 0.08 nM [3H] Compound A; Peakr293 cell membranes; read-out: Ki (nM) rMCH1.
Parameters: host or cells: Peak rapid 293 (Peakr293) cells, transient calcium phosphate transfection, membranes

rat MCH-1, sequence (P97639 whole entry): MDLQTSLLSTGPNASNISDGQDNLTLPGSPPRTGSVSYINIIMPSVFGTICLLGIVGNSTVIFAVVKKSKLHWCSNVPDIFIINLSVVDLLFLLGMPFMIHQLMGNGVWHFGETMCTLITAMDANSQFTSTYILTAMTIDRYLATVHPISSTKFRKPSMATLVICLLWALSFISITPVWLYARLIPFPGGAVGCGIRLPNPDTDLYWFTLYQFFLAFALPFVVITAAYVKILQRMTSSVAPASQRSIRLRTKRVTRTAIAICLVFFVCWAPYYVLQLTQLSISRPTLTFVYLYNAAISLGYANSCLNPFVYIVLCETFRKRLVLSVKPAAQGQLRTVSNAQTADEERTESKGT

SMILES	Ki [nM]
CC(C)C(=O)Nc1cccc(C2CCN(CCCCCC(Oc3ccc(F)cc3)c3ccc(Cl)cc3)CC2)c1 (centres unmarked) [Example 902]	11
CC(C)C(=O)Nc1cccc(C2CCN(CCCCCC(Oc3ccc(Cl)cc3)c3ccccc3)CC2)c1 (centres unmarked) [Example 904]	14.2
CC(=O)c1cccc(OC(CCCCCN2CCC(c3cccc(NC(=O)C(C)C)c3)CC2)c2ccc(F)cc2)c1 (centres unmarked) [Example 908]	3.7
CC(C)C(=O)Nc1cccc(C2CCN(CCCCCC(Oc3ccc(F)cc3)c3ccccc3)CC2)c1 (centres unmarked) [Example 909]	10
CC(=O)c1ccccc1OC(CCCCCN1CCC(c2cccc(NC(=O)C(C)C)c2)CC1)c1ccccc1F (centres unmarked) [Example 910]	10.1
CC(C)C(=O)Nc1cccc(C2CCN(CCCCCC(Oc3cc(C(F)(F)F)ccc3F)c3ccc(F)cc3)CC2)c1 (centres unmarked) [Example 911]	7.6
CC(=O)c1cccc(OC(CCCCCN2CCC(c3cccc(NC(=O)C(C)C)c3)CC2)c2ccc(Cl)cc2)c1 (centres unmarked) [Example 912]	5.7
CC(C)C(=O)Nc1cccc(C2CCN(CCCCCC(Oc3cc(C(F)(F)F)ccc3F)c3ccccc3F)CC2)c1 (centres unmarked) [Example 913]	12.9
CC(C)C(=O)Nc1cccc(C2CCN(CCCCCC(Oc3cc(C(F)(F)F)ccc3F)c3ccc(Cl)cc3)CC2)c1 (centres unmarked) [Example 914]	17.3
CC(C)C(=O)Nc1cccc(C2CCN(CCCCCC(Oc3cc(C(F)(F)F)ccc3F)c3ccccc3)CC2)c1 (centres unmarked) [Example 916]	20.2
CC(C)C(=O)Nc1cccc(C2CCN(CCCCCCC(Oc3cc(C(F)(F)F)ccc3F)c3ccccc3F)CC2)c1 (centres unmarked) [Example 917]	78
COc1ccc(OC(CCCCN2CCC(c3cccc(NC(=O)C(C)C)c3)CC2)c2ccc(F)cc2)cc1 (centres unmarked) [Example 918]	29.3
CC(C)C(=O)Nc1cccc(C2CCN(CCCCC(Oc3ccc(Br)cc3)c3ccc(F)cc3)CC2)c1 (centres unmarked) [Example 919]	14
CC(C)C(=O)Nc1cccc(C2CCN(CCCCC(Oc3ccc(Cl)cc3)c3ccc(Cl)cc3)CC2)c1 (centres unmarked) [Example 920]	6.9
CC(C)C(=O)Nc1cccc(C2CCN(CCCCC(Oc3ccc(Cl)cc3)c3ccccc3)CC2)c1 (centres unmarked) [Example 921]	6.8
CC(=O)c1cccc(OC(CCCCN2CCC(c3cccc(NC(=O)C(C)C)c3)CC2)c2ccc(F)cc2)c1 (centres unmarked) [Example 922]	25
CC(C)C(=O)Nc1cccc(C2CCN(CCCCC(Oc3ccc(F)cc3)c3ccc(Cl)cc3)CC2)c1 (centres unmarked) [Example 923]	1.3
CC(C)C(=O)Nc1cccc(C2CCN(CCCCC(Oc3ccc(F)cc3)c3ccc(F)cc3)CC2)c1 (centres unmarked) [Example 926]	1.4
COc1ccc(OC(CCCCN2CCC(c3cccc(NC(=O)C(C)C)c3)CC2)c2ccccc2)cc1 (centres unmarked) [Example 928]	14.9
CC(C)C(=O)Nc1cccc(C2CCN(CCCCC(Oc3cc(C(F)(F)F)ccc3F)c3ccccc3F)CC2)c1 (centres unmarked) [Example 931]	9.6
CC(C)C(=O)Nc1cccc(C2CCN(CCCCC(Oc3cc(C(F)(F)F)ccc3F)c3ccc(F)cc3)CC2)c1 (centres unmarked) [Example 935]	19.7
CC(C)C(=O)Nc1cccc(C2CCN(CCCCC(Oc3ccc(Cl)cc3)c3ccc(F)cc3)CC2)c1 (centres unmarked) [Example 937]	28.4
CC(=O)c1ccccc1OC(CCCCN1CCC(c2cccc(NC(=O)C(C)C)c2)CC1)c1ccccc1 (centres unmarked) [Example 938]	609
CC(C)C(=O)Nc1cccc(C2CCN(CCCC(=O)c3ccc(F)cc3)CC2)c1 [Example 941]	15.2
COc1ccc(C(=O)CCCN2CCC(c3cccc(NC(=O)C(C)C)c3)CC2)cc1 [Example 944]	38.8

Further compounds by falling Ki, results first:

Ki [nM]	SMILES
337	CC(C)C(=O)Nc1cccc(C2CCN(CCCC(=O)c3ccc(C(C)(C)C)cc3)CC2)c1 [Example 946]
188	CC(C)C(=O)Nc1cccc(C2CCN(CCCc3cc[nH]c3)CC2)c1 [Example 942]
102	CC(C)C(=O)Nc1cccc(C2CCN(CCCC(=O)c3ccc(C(C)C)cc3)CC2)c1 [Example 943]
62	CCOc1ccccc1OC(CCCCN1CCC(c2cccc(NC(=O)C(C)C)c2)CC1)c1ccccc1 (centres unmarked) [Example 939]
60.7	CC(=O)c1cccc(OC(CCCCN2CCC(c3cccc(NC(=O)C(C)C)c3)CC2)c2ccccc2)c1 (centres unmarked) [Example 927]
31.2	Cc1ccc(C(=O)CCCN2CCC(c3cccc(NC(=O)C(C)C)c3)CC2)cc1 [Example 945]
29.9	CC(C)C(=O)Nc1cccc(C2CCN(CCCCC(Oc3cc(C(F)(F)F)ccc3F)c3ccc(C(F)(F)F)cc3)CC2)c1 (centres unmarked) [Example 929]
22.6	CC(C)C(=O)Nc1cccc(C2CCN(CCCCCC(Oc3cc(C(F)(F)F)ccc3F)c3cccc(F)c3)CC2)c1 (centres unmarked) [Example 915]
21.2	CC(C)C(=O)Nc1cccc(C2CCN(CCCC(=O)c3cccs3)CC2)c1 [Example 948]
14.6	CC(C)C(=O)Nc1cccc(C2CCN(CCCCC(Oc3cc(C(F)(F)F)ccc3F)c3cccc(Cl)c3)CC2)c1 (centres unmarked) [Example 930]
13.4	COc1ccc(OC(CCCCN2CCC(c3cccc(NC(=O)C(C)C)c3)CC2)c2ccc(Cl)cc2)cc1 (centres unmarked) [Example 925]
13.1	CC(C)C(=O)Nc1cccc(C2CCN(CCCCC(Oc3ccc(Br)cc3)c3ccccc3)CC2)c1 (centres unmarked) [Example 924]
12.3	CC(C)C(=O)Nc1cccc(C2CCN(CCCCC(Oc3cc(C(F)(F)F)ccc3F)c3ccc(Cl)cc3)CC2)c1 (centres unmarked) [Example 934]
12.2	CC(=O)c1cccc(OC(CCCCCN2CCC(c3cccc(NC(=O)C(C)C)c3)CC2)c2ccccc2)c1 (centres unmarked) [Example 903]
11.6	CC(C)C(=O)Nc1cccc(C2CCN(CCCCC(Oc3ccc(Br)cc3)c3ccc(Cl)cc3)CC2)c1 (centres unmarked) [Example 936]
10.9	CC(=O)c1cccc(OC(CCCCN2CCC(c3cccc(NC(=O)C(C)C)c3)CC2)c2ccc(Cl)cc2)c1 (centres unmarked) [Example 933]
9.4	CC(C)C(=O)Nc1cccc(C2CCN(CCCCC(Oc3cc(C(F)(F)F)ccc3F)c3cccc(F)c3)CC2)c1 (centres unmarked) [Example 932]
5.9	CC(C)C(=O)Nc1cccc(C2CCN(CCCCCC(Oc3ccc(Br)cc3)c3ccc(Cl)cc3)CC2)c1 (centres unmarked) [Example 905]
5.7	COc1ccc(OC(CCCCCN2CCC(c3cccc(NC(=O)C(C)C)c3)CC2)c2ccc(Cl)cc2)cc1 (centres unmarked) [Example 906]
4.3	CC(C)C(=O)Nc1cccc(C2CCN(CCCC(=O)c3ccc(Br)cc3)CC2)c1 [Example 947]
3.1	COc1ccc(OC(CCCCCN2CCC(c3cccc(NC(=O)C(C)C)c3)CC2)c2ccc(F)cc2)cc1 (centres unmarked) [Example 907]
1.8	CC(C)C(=O)Nc1cccc(C2CCN(CCCCC(Oc3ccc(F)cc3)c3ccccc3)CC2)c1 (centres unmarked) [Example 940]

From patent publication US6727264B1 (Synaptic Pharmaceutical Corporation, priority 2001, dated 2004)
